In the assay the target is recombinant human CETP protein (Homo sapiens (Human), UniProt P11597). Kind of assay: Test of CETP inhibition activity (in vitro, buffer-based). The class given is biochemical. The conditions noted are these: reconstituted HDL with [14C]-labeled cholesteryl ester, acceptor lipoprotein, 37° C. The protocol: Test of CETP Inhibition Activity (In Vitro, Buffer-Based)
recombinant human CETP protein, sequence (P11597 18-493): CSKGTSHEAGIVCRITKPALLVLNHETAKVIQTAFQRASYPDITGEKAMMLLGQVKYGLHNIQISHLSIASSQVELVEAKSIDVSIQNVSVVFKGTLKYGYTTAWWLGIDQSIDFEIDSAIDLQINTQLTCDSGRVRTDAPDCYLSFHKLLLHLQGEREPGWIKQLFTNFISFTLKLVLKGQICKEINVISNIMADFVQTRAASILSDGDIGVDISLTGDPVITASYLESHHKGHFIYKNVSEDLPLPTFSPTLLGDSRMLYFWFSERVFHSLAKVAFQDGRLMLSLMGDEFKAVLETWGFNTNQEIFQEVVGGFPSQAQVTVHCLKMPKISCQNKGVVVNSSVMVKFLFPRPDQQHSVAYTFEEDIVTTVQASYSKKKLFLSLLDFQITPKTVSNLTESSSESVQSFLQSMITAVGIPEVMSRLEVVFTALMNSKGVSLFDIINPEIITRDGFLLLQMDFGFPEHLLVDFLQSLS
(1) Preparation of Reconstituted HDL
Cholesterol (1.125 μmol), phosphatidyl choline (4.5 μmol) and [^14C]-labeled cholesteryl ester (2.0 μCi; 40 μl) were taken in a glass test tube and well mixed with a vortex, and dried under a nitrogen gas current so that it formed a thin film. The obtained mixture was dissolved in ethanol (200 μl), which was designated as Solution A. A PBS solution [a mixed solution of Na2HPO4 (30 mM), KH2PO4 (8.8 mM), NaCl (60 mM) and EDTA (pH 7.4; 0.67 mM); 4 ml] was taken in a tube and the reaction solution was vigorously stirred with a vortex under a nitrogen current. The above-described Solution A was gently injected into this mixture with a syringe and the reaction solution was vigorously stirred with a vortex for 5 minutes under a nitrogen current. Sodium cholate ([…]; 0.38 ml) was added to the obtained mixture and the reaction solution was stirred for 2 minutes. ApoA-I protein (3 mg) was added to the obtained mixture and the reaction solution was stirred for 2 minutes. The obtained mixture was adjusted to 5 ml with the PBS solution and then dialyzed with the PBS solution. The obtained mixture was designated as the reconstituted HDL.
(2) Preparation of Acceptor Lipoprotein
NaBr was added to the plasma of a healthy person and the density of the mixture was adjusted to 1.019, and the mixture was subjected to density gradient centrifugation (40000 rpm, for 16 hours) to remove the fraction having a density of less than 1.019. NaBr was added to the obtained mixture and the density of the solution was adjusted to 1.063, and the solution was subjected to density gradient centrifugation (40000 rpm, 18 hours) to provide the fraction consisting of IDL (intermediate density lipoprotein) and LDL (1.019<density<1.063). The obtained fraction was dialyzed with the PBS solution. The obtained mixture was designated as the acceptor lipoprotein.
(3) Measurement of CETP Inhibition Activity
A recombinant human CETP protein (manufactured by Roar Biomedical Inc.; 4.5 ng), the acceptor lipoprotein described in (2) above (32.5 μg) and 5,5′-dithio-bis-(2-nitrobenzoic acid) (7 mM, 15 μl) were taken in a 96 well plate and the total amount of the mixture was adjusted to 48.5 μl with the PBS solution. The test compound [DMSO solution (concentration: 0.15, 0.5, 1.5, 5, 15, 50, 150 and 500 μM; 1.5 μl] was added to each well and the mixture was incubated in a thermostatic bath at 37° C. for 60 minutes. The reconstituted HDL (50 μl) described in (1) above was added to each well and the mixture was reacted in a thermostatic bath at 37° C. for 60 minutes. The 96 well plate was moved onto ice and a precipitation reagent [a mixed solution of magnesium chloride (60 mM) and 0.1% dextran sulfate [1/1 (v/v)]; 15 μl] was added to each well, and then the mixture was allowed to stand on ice for 15 minutes. The reaction solution (80 μl) in each well was moved to a filter plate and centrifuged at 1500 rpm for 1 minute, and the filtrate which passed through the filter was designated as the HDL fraction and the radioactivity thereof was measured with a scintillation counter. The percentage decrease in radioactivity in the case where the test compound was added in comparison with that in case where the test compound was not added was designated as the percentage CETP inhibition. The IC50 value was calculated from the percentage CETP inhibition.
Usually IC50 stands for the concentration that inhibits the measured activity by half. Turning to `CC(C)OCc1cnc(N2CCC(c3nc4c(c(C5CCC(F)(F)CC5)c3[C@@H](F)c3ccc(C(F)(F)F)cc3)[C@@H](O)CC(C)(C)C4)CC2)nc1` (single isomer, unassigned) [Example 28, (−)-4-(4,4-difluorocyclohexyl)-3-{fluoro[4-(trifluoromethyl)phenyl]methyl}-7,7-dimethyl-2-(1-{5-[(propan-2-yloxy)methyl]pyrimidine-2-yl}piperidin-4-yl)-5,6,7,8-tetrahydroquinoline-5-ol], the 50% inhibitory concentration (IC50) came to 78 nM.
The same measure for `CC(C)COCc1cnc(N2CCC(c3nc4c(c(C5CCC(F)(F)CC5)c3[C@@H](F)c3ccc(C(F)(F)F)cc3)[C@@H](O)CC(C)(C)C4)CC2)nc1` (single isomer, unassigned) [Example 29, (−)-4-(4,4-Difluorocyclohexyl)-3-{fluoro[4-(trifluoromethyl)phenyl]methyl}-7,7-dimethyl-2-(1-{5-[(2-methylpropoxy)methyl]pyrimidin-2-yl}piperidin-4-yl)-5,6,7,8-tetrahydroquinolin-5-ol]: 62 nM.
To `CN1CC[C@@H](Oc2cnc(N3CCC(c4nc5c(c(C6CCC(F)(F)CC6)c4C(F)c4ccc(C(F)(F)F)cc4)C(O)CC(C)(C)C5)CC3)nc2)C1` (single isomer, unassigned) [Example 41] belongs 16 nM; to `CCCCCc1cnc(N2CCC(c3nc4c(c(C5CCC(F)(F)CC5)c3[C@@H](F)c3ccc(C(F)(F)F)cc3)[C@@H](O)CC(C)(C)C4)CC2)nc1` (single isomer, unassigned) [Example 16, (−)-4-(4,4-Difluorocyclohexyl)-3-{fluoro[4-(trifluoromethyl)phenyl]methyl}-7,7-dimethyl-2-[1-(5-pentylpyrimidin-2-yl)piperidin-4-yl]-5,6,7,8-tetrahydroquinolin-5-ol], 243 nM; to `CC(C)c1cnc(N2CCC(c3nc4c(c(C5CCC(F)(F)CC5)c3[C@@H](F)c3ccc(C(F)(F)F)cc3)[C@@H](O)CC(C)(C)C4)CC2)nc1` (single isomer, unassigned) [Example 12, 4-(4,4-Difluorocyclohexyl)-3-{fluoro[4-(trifluoromethyl)phenyl]methyl}-7,7-dimethyl-2-{1-[5-(propan-2-yl)pyrimidin-2-yl]piperidin-4-yl}-5,6,7,8-tetrahydroquinolin-5-ol], 103 nM.
As to `CC1(C)Cc2nc(C3CCN(c4ncc(O)cn4)CC3)c([C@@H](F)c3ccc(C(F)(F)F)cc3)c(C3CCC(F)(F)CC3)c2[C@@H](O)C1` (single isomer, unassigned) [Example 4, (−)-4-(4,4-Difluorocyclohexyl)-3-{fluoro[4-(trifluoromethyl)phenyl]methyl}-2-[1-(5-hydroxypyrimidin-2-yl)piperidin-4-yl]-7,7-dimethyl-5,6,7,8-tetrahydroquinolin-5-ol], the IC50 was determined as 73 nM.
For the molecule `CC1(C)Cc2nc(C3CCN(c4ncc(CCCC(F)(F)F)cn4)CC3)c([C@@H](F)c3ccc(C(F)(F)F)cc3)c(C3CCC(F)(F)CC3)c2[C@@H](O)C1` (single isomer, unassigned) [Example 33, 4-(4,4-Difluorocyclohexyl)-3-{fluoro[4-(trifluoromethyl)phenyl]methyl}-7,7-dimethyl-2-{1-[5-(4,4,4-trifluorobutyl)pyrimidin-2-yl]piperidin-4-yl}-5,6,7,8-tetrahydroquinolin-5-ol], the IC50 came out at 48 nM.
To `C[C@H](O)COc1cnc(N2CCC(c3nc4c(c(C5CCC(F)(F)CC5)c3[C@@H](F)c3ccc(C(F)(F)F)cc3)[C@@H](O)CC(C)(C)C4)CC2)nc1` [Example 37, (−)-4-(4,4-Difluorocyclohexyl)-3-{fluoro[4-(trifluoromethyl)phenyl]methyl}-2-[1-(5-{[(2S)-2-hydroxypropyl]oxy}pyrimidin-2-yl)piperidin-4-yl]-7,7-dimethyl-5,6,7,8-tetrahydroquinolin-5-ol] belongs 25 nM.
The same measure for `CC1(C)Cc2nc(C3CCN(c4ncc(N5CCSCC5)cn4)CC3)c([C@@H](F)c3ccc(C(F)(F)F)cc3)c(C3CCC(F)(F)CC3)c2[C@@H](O)C1` (single isomer, unassigned) [Example 9, (−)-4-(4,4-Difluorocyclohexyl)-3-{fluoro[4-(trifluoromethyl)phenyl]methyl}-7,7-dimethyl-2-{1-[5-(thiomorpholin-4-yl)pyrimidin-2-yl]piperidin-4-yl}-5,6,7,8-tetrahydroquinolin-5-ol]: 122 nM; for `CC(C)(O)CCOc1cnc(N2CCC(c3nc4c(c(C5CCC(F)(F)CC5)c3[C@@H](F)c3ccc(C(F)(F)F)cc3)[C@@H](O)CC(C)(C)C4)CC2)nc1` (single isomer, unassigned) [Example 43, (−)-4-(4,4-Difluorocyclohexyl)-3-{fluoro[4-(trifluoromethyl)phenyl]methyl}-2-{1-[5-(3-hydroxy-3-methylbutoxy)pyrimidin-2-yl]piperidin-4-yl}-7,7-dimethyl-5,6,7,8-tetrahydroquinolin-5-ol]: 9 nM; for `CC(C)COc1cnc(N2CCC(c3nc4c(c(C5CCC(F)(F)CC5)c3[C@@H](F)c3ccc(C(F)(F)F)cc3)[C@@H](O)CC(C)(C)C4)CC2)nc1` (single isomer, unassigned) [Example 21, (−)-4-(4,4-difluorocyclohexyl)-3-{fluoro[4-(trifluoromethyl)phenyl]methyl}-7,7-dimethyl-2-{1-[5-(2-methylpropoxy)pyrimidine-2-yl]piperidin-4-yl}-5,6,7,8-tetrahydroquinoline-5-ol]: 99 nM.
The same measure for `CN(C)C(=O)c1cnc(N2CCC(c3nc4c(c(C5CCC(F)(F)CC5)c3[C@@H](F)c3ccc(C(F)(F)F)cc3)[C@@H](O)CC(C)(C)C4)CC2)nc1` (single isomer, unassigned) [Example 31, (−)-4-(4,4-Difluorocyclohexyl)-2-{1-[5-(dimethylcarbamoyl)pyrimidin-2-yl]piperidin-4-yl}-3-{fluoro[4-(trifluoromethyl)phenyl]methyl}-7,7-dimethyl-5,6,7,8-tetrahydroquinolin-5-ol]: 29 nM; for `CSc1cnc(N2CCC(c3nc4c(c(C5CCC(F)(F)CC5)c3[C@@H](F)c3ccc(C(F)(F)F)cc3)[C@@H](O)CC(C)(C)C4)CC2)nc1` (single isomer, unassigned) [Example 53, (−)-4-(4,4-Difluorocyclohexyl)-3-{fluoro[4-(trifluoromethyl)phenyl]methyl}-7,7-dimethyl-2-[1-(5-methylthiopyrimidin-2-yl)-piperidin-4-yl]-5,6,7,8-tetrahydroquinolin-5-ol]: 34 nM; for `CC1(C)Cc2nc(C3CCN(c4ncc(N5CCC(O)CC5)cn4)CC3)c([C@@H](F)c3ccc(C(F)(F)F)cc3)c(C3CCC(F)(F)CC3)c2[C@@H](O)C1` (single isomer, unassigned) [Example 11, (−)-4-(4,4-Difluorocyclohexyl)-3-{fluoro[4-(trifluoromethyl)phenyl]methyl}-2-{1-[5-(4-hydroxypiperidin-1-yl)pyrimidin-2-yl]piperidin-4-yl}-7,7-dimethyl-5,6,7,8-tetrahydroquinolin-5-ol]: 46 nM.
As to `CC1(C)Cc2nc(C3CCN(c4ncc(OCCCO)cn4)CC3)c([C@@H](F)c3ccc(C(F)(F)F)cc3)c(C3CCC(F)(F)CC3)c2[C@@H](O)C1` [Example 46, (−)-4-(4,4-Difluorocyclohexyl)-3-{fluoro[4-(trifluoromethyl)phenyl]methyl}-2-{1-[5-(3-hydroxypropoxy)pyrimidin-2-yl]piperidin-4-yl}-7,7-dimethyl-5,6,7,8-tetrahydroquinolin-5-ol], the IC50 amounted to 16 nM.
To `CC1(C)Cc2nc(C3CCN(c4ncccn4)CC3)c([C@@H](F)c3ccc(C(F)(F)F)cc3)c(C3CCC(F)(F)CC3)c2[C@@H](O)C1` (single isomer, unassigned) [Example 1, (−)-4-(4,4-Difluorocyclohexyl)-3-{fluoro[4-(trifluoromethyl)phenyl]methyl}-7,7-dimethyl-2-[1-(pyrimidin-2-yl)-piperidin-4-yl]-5,6,7,8-tetrahydroquinolin-5-ol] belongs 83 nM.

The values above are taken from patent US9187450B2, “Substituted pyridine compound” (Daiichi Sankyo Company, Limited, priority 2010, dated 2015).
